Results reported in patent US20160015036A1, “Methods and apparatuses related to pre- and post-dip teat treatment in milking facilities” (Aqua Access LLC, priority 2013, published 2016).

Legend:
E. coli cells = details: 100 ppm hypochlorite applied for 1 min.; cited from earlier work
S. aures = experiment: Bacteriocidal activity tests of colloidal disinfectant mix at low/intermediate/high FAC, S. aureus; type: cell-based, Staphylococcus aureus; details: 200-300 ppm FAC in viscous post-dip solutions; 30 seconds
Procedure: (§1) FIG. 4 is an illustration of a test for bacteriocidal activity.
(§2) Colloid-based disinfectant mixing procedures were established as follows. Step 1—Mix 2 g GA into 90 mL of water, leave with constant slow mixing for 1 hour. Step 2—Generate chlorine-based oxidant by salt brine electrolysis. Measure FAC concentration by the Hach DPD technique. Step 3—Dilute free chlorine solution from fresh electrolyzed brine solution. Final FAC concentration to be 200 ppm or 300 ppm. Step 4—Add 1 g of pure lanolin (with no additives), fill up the volume to 100 mL. Mix with slow stirring or on a rotary carousel for another hour. If needed, add Brilliant Blue (food-grade) dye during the last mixing. Ready. Store at ambient temperature for up to 48 hours or 72 hours.
(§3) Also, 400 ppm FAC in the disinfectant colloid mix causes 7-log inactivation of E. coli, and 200 ppm FAC is sufficient for 6-log inactivation of S. aures. Higher FAC concentrations can be useful in pre-dip solutions for teat wash. 200-300 ppm FAC, which holds for a long time upon storage, can be sufficient for post-dip solutions. Note that the tests were performed under controlled laboratory conditions. Field test data might support the data, or might indicate that higher FAC concentrations are necessary.

E. coli = experiment: Bacteriocidal activity tests of colloidal disinfectant mix at low/intermediate/high FAC, E. coli; type: cell-based, Escherichia coli; details: 200-300 ppm FAC in viscous post-dip solutions; 30 seconds
Procedure: as §1, §2, §3

OCl [sodium hypochlorite]
E. coli cells killed (E. coli cells): 10^6 cells
log inactivation of Staphylococcus aureus (S. aures): 6 log
log inactivation of Escherichia coli (E. coli): 6 log
